We go through 4 molecules from US20260176320A1, “MODULATORS OF G-PROTEIN COUPLED RECEPTORS” (priority 2018, published 2026).

Where two headings read alike, the source gives them in different places.

For orientation: Emax means the greatest response seen or fitted, relative to the assay's reference.

Experiment [1] has as its target T1, GLP-1R (Homo sapiens, UniProt P43220). Put plainly: PathHunter β-arrestin assay. Type of experiment: cell-based. To be noted: PathHunter β-arrestin assay; read-out: β-arrestin activity EC50. The method, boiled down: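 Cells (5,000/well) plated overnight, then exposed to a 22-point 2-fold agonist dilution series in medium with 0.2% BSA for 90 min at 37 °C, 5% CO2. PathHunter detection reagent added; after 3 h at room temperature in the dark, luminescence read.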

The next experiment concerns the target T2, GIP-R (Homo sapiens, UniProt P48546).
T2 sequence (P48546 22-466): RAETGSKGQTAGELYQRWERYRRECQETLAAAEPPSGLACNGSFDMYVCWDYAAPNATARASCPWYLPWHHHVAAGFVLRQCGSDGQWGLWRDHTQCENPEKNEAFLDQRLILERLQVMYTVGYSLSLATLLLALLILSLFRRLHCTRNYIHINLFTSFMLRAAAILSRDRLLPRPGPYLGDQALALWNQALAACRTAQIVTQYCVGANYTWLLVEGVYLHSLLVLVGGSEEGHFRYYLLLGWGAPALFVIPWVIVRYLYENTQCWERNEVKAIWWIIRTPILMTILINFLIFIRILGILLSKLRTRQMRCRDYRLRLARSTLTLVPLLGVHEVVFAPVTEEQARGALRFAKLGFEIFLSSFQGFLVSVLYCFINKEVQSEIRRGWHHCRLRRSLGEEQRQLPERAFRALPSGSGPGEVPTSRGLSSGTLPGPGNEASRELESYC
The experiment is described as follows: HitHunter cAMP assay (GIP-R). It is filed as cell-based. The conditions noted are these: cAMP; for Emax: read-out: (Emax) GIP-R; for EC50: read-out: EC50 GIP-R/nM. The procedure, abridged:
(§1)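 Suspension cells (10,000/well) in HBSS with 10 mM HEPES, 625 μM IBMX, 0.2% BSA exposed to 22-point 2-fold agonist series in duplicate for 30 min at room temperature. cAMP measured by antibody immunocompetition with overnight development, luminescence read-out.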

The next experiment deals with mice. The experiment is described as follows: Glucose tolerance test (GTT). It is filed as in vivo, mouse. The conditions noted are these: 24 h GTT, s.c., dose range 2-5 nmol/kg, percent of vehicle. The protocol: Freestyle Lite glucometer and strips; compounds to be tested; sterilized glucose solution 200 mg/ml.
Compounds were diluted in PBS from the 1 mM DMSO stocks right before injection. Body weight and baseline blood glucose level for each mouse were measured. Tails were snipped using sterile scissors; blood from tails was used to measure glucose. For 0.25 h GTT, mice were fasted for 5-6 h and injected with compound subcutaneously 15 mins before glucose injection. For 4 h GTT, mice were fasted O/N for 16 h and injected with compound subcutaneously 4 h before glucose injection. For 16 h GTT, mice were injected with compound subcutaneously 16 h before glucose injection; food was removed at the same time. For 24 h GTT, mice were injected with compound subcutaneously 24 h before glucose injection; food was removed 5-6 h before glucose injection. 20% glucose in water was prepared; the solution was sterilized by 0.2 μm-filtration. An intraperitoneal injection of glucose (2 g/kg) was given to the mouse. Continued to take blood samples from the tail. Blood glucose was measured at 10, 20, 30, 40, 60, 90, and 120 minutes after glucose injection. Between each of these time points, the mouse was returned to its cage and monitored (at least 6 replicate mice were used for each time-point). The average glucose measurements were plotted as a function of time and the area under the curve (AUC) was determined.

Experiment [2] deals with T1, GLP-1R. The experiment is described as follows: HitHunter cAMP assay (GLP-1R). It is filed as cell-based. The conditions noted are these: cAMP; for Emax: read-out: (Emax) GLP-1R; for EC50: read-out: EC50 GLP-1R/nM. The procedure, abridged: as §1
Background: Cyclic AMP is a second messenger, typically raised through Gs and lowered through Gi signalling.

T1 sequence (P43220 24-463): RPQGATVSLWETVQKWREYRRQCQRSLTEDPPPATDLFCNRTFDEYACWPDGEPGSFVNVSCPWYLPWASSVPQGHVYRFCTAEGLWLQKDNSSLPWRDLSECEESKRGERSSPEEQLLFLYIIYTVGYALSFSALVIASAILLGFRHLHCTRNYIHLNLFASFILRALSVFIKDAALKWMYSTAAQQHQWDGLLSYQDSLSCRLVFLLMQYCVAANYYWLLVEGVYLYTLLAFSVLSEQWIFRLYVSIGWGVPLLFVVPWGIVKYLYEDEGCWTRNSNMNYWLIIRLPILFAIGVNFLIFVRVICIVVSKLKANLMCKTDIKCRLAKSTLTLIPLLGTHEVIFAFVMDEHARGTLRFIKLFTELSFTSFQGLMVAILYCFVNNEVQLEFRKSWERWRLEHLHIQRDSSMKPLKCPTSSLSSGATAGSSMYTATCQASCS

As for `CCCCCCCCCCCCCCCC(=O)N[C@@H](CCC(=O)NCCCC[C@H](NC(=O)[C@H](CO)NC(=O)[C@@H]1CCCN1C(=O)[C@@H]1CCCN1C(=O)[C@@H]1CCCN1C(=O)[C@H](C)NC(=O)CNC(=O)[C@H](CO)NC(=O)[C@H](CO)NC(=O)[C@@H]1CCCN1C(=O)CNC(=O)CNC(=O)[C@H](C)NC(=O)[C@H](CC(C)C)NC(=O)[C@H](CC(C)C)NC(=O)[C@H](Cc1c[nH]c2ccccc12)NC(=O)[C@H](CC(N)=O)NC(=O)[C@@H](NC(=O)[C@H](Cc1ccccc1)NC(=O)[C@H](CCC(=O)O)NC(=O)C(C)(C)NC(=O)[C@H](C)NC(=O)[C@H](C)NC(=O)[C@H](CCC(N)=O)NC(=O)[C@H](CCCCN)NC(=O)[C@H](CC(=O)O)NC(=O)[C@H](CC(C)C)NC(=O)[C@H](Cc1ccc(O)cc1)NC(=O)[C@@H](NC(=O)[C@H](CO)NC(=O)[C@H](Cc1ccc(O)cc1)NC(=O)[C@H](CC(=O)O)NC(=O)[C@H](CO)NC(=O)[C@@H](NC(=O)[C@H](Cc1ccccc1)NC(=O)[C@@H](NC(=O)CNC(=O)[C@H](CCC(=O)O)NC(=O)CNC(=O)CCN1CCCCC1=O)[C@@H](C)O)[C@@H](C)O)[C@@H](C)CC)C(C)C)C(N)=O)C(=O)O` [Compound 1], the EC50 is more than 1000 nM on GLP-1R [1]; 1 to 10 nM on GIP-R (Table 3); 10 to 100 nM at GIP-R (Table 3A); 0.1 to 1 nM on GLP-1R [2] (Table 3); 0.1 to 1 nM on GLP-1R [2] (Table 3A). In addition, the Emax on GIP-R (Table 3) is 23%; at GIP-R (Table 3A), 23%; on GLP-1R [2] (Table 3) it was 97%; at GLP-1R [2] (Table 3A), 97%. Besides, in the experiment with mice, the AUC score is on record as 3 (AUC score 3 = 51-75%).

As for `CCCCCCCCCCCCCCCC(=O)N[C@@H](CCC(=O)NCCCC[C@H](NC(=O)[C@H](CO)NC(=O)[C@@H]1CCCN1C(=O)[C@@H]1CCCN1C(=O)[C@@H]1CCCN1C(=O)[C@H](C)NC(=O)CNC(=O)[C@H](CO)NC(=O)[C@H](CO)NC(=O)[C@@H]1CCCN1C(=O)CNC(=O)CNC(=O)[C@H](C)NC(=O)[C@H](CC(C)C)NC(=O)[C@H](CC(C)C)NC(=O)[C@H](Cc1c[nH]c2ccccc12)NC(=O)[C@H](CC(N)=O)NC(=O)[C@@H](NC(=O)[C@H](Cc1ccccc1)NC(=O)[C@H](CCC(=O)O)NC(=O)C(C)(C)NC(=O)[C@H](C)NC(=O)[C@H](C)NC(=O)[C@H](CCC(N)=O)NC(=O)[C@H](CCCCN)NC(=O)[C@H](CC(=O)O)NC(=O)[C@H](CC(C)C)NC(=O)[C@H](Cc1ccc(O)cc1)NC(=O)[C@@H](NC(=O)[C@H](CO)NC(=O)[C@H](Cc1ccc(O)cc1)NC(=O)[C@H](CC(=O)O)NC(=O)[C@H](CO)NC(=O)[C@@H](NC(=O)[C@H](Cc1ccccc1)NC(=O)[C@@H](NC(=O)CNC(=O)[C@H](CCC(=O)O)NC(=O)CNC(=O)CN1CCCCC1=O)[C@@H](C)O)[C@@H](C)O)[C@@H](C)CC)C(C)C)C(N)=O)C(=O)O` [Compound 2], the EC50 at GLP-1R [1] is more than 1000 nM; at GIP-R (Table 3) it was 1 to 10 nM; at GIP-R (Table 3A) it was 1 to 10 nM; at GLP-1R [2] (Table 3), less than 0.1 nM; on GLP-1R [2] (Table 3A), less than 0.1 nM. Also, the Emax on GIP-R (Table 3) was 46%; at GIP-R (Table 3A), 46%; on GLP-1R [2] (Table 3), 99%; on GLP-1R [2] (Table 3A) it was 99%. The AUC score in the experiment on mice is 2 (AUC score 2 = 26-50%).

In the case of `CCCCCCCCCCCCCCCC(=O)N[C@@H](CCC(=O)NCCCC[C@H](NC(=O)[C@H](CO)NC(=O)[C@@H]1CCCN1C(=O)[C@@H]1CCCN1C(=O)[C@@H]1CCCN1C(=O)[C@H](C)NC(=O)CNC(=O)[C@H](CO)NC(=O)[C@H](CO)NC(=O)[C@@H]1CCCN1C(=O)CNC(=O)CNC(=O)[C@H](C)NC(=O)[C@H](CC(C)C)NC(=O)[C@H](CC(C)C)NC(=O)[C@H](Cc1c[nH]c2ccccc12)NC(=O)[C@H](CC(N)=O)NC(=O)[C@@H](NC(=O)[C@H](Cc1ccccc1)NC(=O)[C@H](CCC(=O)O)NC(=O)C(C)(C)NC(=O)[C@H](C)NC(=O)[C@H](C)NC(=O)[C@H](CCC(N)=O)NC(=O)[C@H](CCCCN)NC(=O)[C@H](CC(=O)O)NC(=O)[C@H](CC(C)C)NC(=O)[C@H](Cc1ccc(O)cc1)NC(=O)[C@@H](NC(=O)[C@H](CO)NC(=O)[C@H](Cc1ccc(O)cc1)NC(=O)[C@H](CC(=O)O)NC(=O)[C@H](CO)NC(=O)[C@@H](NC(=O)[C@H](Cc1ccccc1)NC(=O)[C@@H](NC(=O)CNC(=O)[C@H](CCC(=O)O)NC(=O)CCNC(=O)CN1CCCCC1=O)[C@@H](C)O)[C@@H](C)O)[C@@H](C)CC)C(C)C)C(N)=O)C(=O)O` [Compound 5], the EC50 at GLP-1R [1] is 10 to 1000 nM; at GIP-R (Table 3), 1 to 10 nM; on GIP-R (Table 3A), 1 to 10 nM; on GLP-1R [2] (Table 3) it was less than 0.1 nM; at GLP-1R [2] (Table 3A), less than 0.1 nM. The maximal effect (Emax) at GIP-R (Table 3) is 74%; on GIP-R (Table 3A), 74%; at GLP-1R [2] (Table 3), 95%; on GLP-1R [2] (Table 3A), 95%. In addition, the AUC score in the experiment with mice was 2 (AUC score 2 = 26-50%).

Turning to `CCCCCCCCCCCCCCCC(=O)N[C@@H](CCC(=O)NCCCC[C@H](NC(=O)[C@H](CO)NC(=O)[C@@H]1CCCN1C(=O)[C@@H]1CCCN1C(=O)[C@@H]1CCCN1C(=O)[C@H](C)NC(=O)CNC(=O)[C@H](CO)NC(=O)[C@H](CO)NC(=O)[C@@H]1CCCN1C(=O)CNC(=O)CNC(=O)[C@H](C)NC(=O)[C@H](CC(C)C)NC(=O)[C@H](CC(C)C)NC(=O)[C@H](Cc1c[nH]c2ccccc12)NC(=O)[C@H](CC(N)=O)NC(=O)[C@@H](NC(=O)[C@H](Cc1ccccc1)NC(=O)[C@H](CCC(=O)O)NC(=O)C(C)(C)NC(=O)[C@H](C)NC(=O)[C@H](C)NC(=O)[C@H](CCC(N)=O)NC(=O)[C@H](CCCCN)NC(=O)[C@H](CC(=O)O)NC(=O)[C@H](CC(C)C)NC(=O)[C@H](Cc1ccc(O)cc1)NC(=O)[C@@H](NC(=O)[C@H](CO)NC(=O)[C@H](Cc1ccc(O)cc1)NC(=O)[C@H](CC(=O)O)NC(=O)[C@H](CO)NC(=O)[C@@H](NC(=O)[C@H](Cc1ccccc1)NC(=O)[C@@H](NC(=O)CNC(=O)[C@H](CCC(=O)O)NC(=O)CCCNC(=O)CN1CCCCC1=O)[C@@H](C)O)[C@@H](C)O)[C@@H](C)CC)C(C)C)C(N)=O)C(=O)O` [Compound 16], the EC50 on GLP-1R [1] was less than 10 nM; on GIP-R (Table 3), 1 to 10 nM; at GIP-R (Table 3A), 10 to 100 nM; at GLP-1R [2] (Table 3), less than 0.1 nM; at GLP-1R [2] (Table 3A), less than 0.1 nM. For the same molecule, the Emax at GIP-R (Table 3) was 22%; on GIP-R (Table 3A), 22%; on GLP-1R [2] (Table 3) it was 97%; on GLP-1R [2] (Table 3A) it was 97%. In addition, the AUC score with mice is on record as 2 (AUC score 2 = 26-50%).
